For the experiment, the system named is IFNα-Induced STAT Phosphorylation in Human Whole Blood. In words: IFNα-Induced STAT Phosphorylation in Human Whole Blood. Format: cell-based. The note with it: 1 h incubation with compound, 1000 U/mL recombinant human IFNα A/D for 15 min, pSTAT5 (pY694) median fluorescence intensity in CD3 positive population, read-out: hWB IC50. As for the experimental part: IFNα-Induced STAT Phosphorylation in Human Whole Blood
After an hour long incubation with compound, human whole blood (drawn with either EDTA or ACD-A as anti-coagulant) was stimulated with 1000 U/mL recombinant human IFNα A/D (R&D Systems 11200-2) for 15 min. The stimulation was stopped by adding Fix/Lyse buffer (BD 558049). Cells were stained with a CD3 FITC antibody (BD 555916), washed, and permeabilized on ice using Perm III buffer (BD 558050). […] The amount of pSTAT5 expression was quantitated by median fluorescence intensity after gating on the CD3 positive population.
IFNα-Induced STAT Phosphorylation in Human Whole Blood Inhibition Data
As to `[2H]C([2H])([2H])NC(=O)c1nnc(NC(=O)C2CC2)cc1Nc1cccc(-c2cnc(C(=O)N3CCC3)cn2)c1OC` [Example 40, 4-((3-(5-(azetidine-1-carbonyl)pyrazin-2-yl)-2-methoxyphenyl)amino)-6-(cyclopropanecarboxamido)-N-(methyl-d3)pyridazine-3-carboxamide], the IC50 turned out to be 360 nM. In the case of `[2H]C([2H])([2H])NC(=O)c1nnc(NC(=O)C2CC2)cc1Nc1cc(F)cc(-c2ccc(C(=O)N(C)C)nn2)c1OC` [Example 42, 6-(cyclopropanecarboxamido)-4-((3-(6-(dimethylcarbamoyl)pyridazin-3-yl)-5-fluoro-2-methoxyphenyl)amino)-N-(methyl-d3)pyridazine-3-carboxamide], the IC50 turned out to be 56 nM. With `[2H]C([2H])([2H])NC(=O)c1nnc(NC(=O)C2CC2)cc1Nc1cc(F)cc(-c2ccc(C(=O)N(C)C)cn2)c1OC` [Example 44, 6-(cyclopropanecarboxamido)-4-((3-(5-(dimethylcarbamoyl)pyridin-2-yl)-5-fluoro-2-methoxyphenyl)amino)-N-(methyl-d3)pyridazine-3-carboxamide], the IC50 stood at 109 nM.

On to `[2H]C([2H])([2H])NC(=O)c1nnc(NC(=O)C2CC2)cc1Nc1cccc(-c2ccc(C(=O)N3CCCC3)cn2)c1OC` [Example 45], for which the IC50 amounted to 218 nM.

On to `[2H]C([2H])([2H])NC(=O)c1nnc(NC(=O)C2CC2)cc1Nc1cccc(-c2ncc(C(=O)N3CCCC3)cn2)c1OC` [Example 47, 6-(cyclopropanecarboxamido)-4-((2-methoxy-3-(5-(pyrrolidine-1-carbonyl)pyrimidin-2-yl)phenyl)amino)-N-(methyl-d3)pyridazine-3-carboxamide], for which the IC50 was determined as 126 nM. The result for `[2H]C([2H])([2H])NC(=O)c1nnc(NC(=O)C2CC2)cc1Nc1cccc(-c2ncc(C(=O)N3CCC3)cn2)c1OC` [Example 48, 4-((3-(5-(azetidine-1-carbonyl)pyrimidin-2-yl)-2-methoxyphenyl)amino)-6-(cyclopropanecarboxamido)-N-(methyl-d3)pyridazine-3-carboxamide] reads 118 nM. For the compound `[2H]C([2H])([2H])NC(=O)c1nnc(NC(=O)C2CC2)cc1Nc1cccc(-c2nccc(C(=O)N(C)C)n2)c1OC` [Example 49, 6-(cyclopropanecarboxamido)-4-((3-(4-(dimethylcarbamoyl)pyrimidin-2-yl)-2-methoxyphenyl)amino)-N-(methyl-d3)pyridazine-3-carboxamide], the 50% inhibitory concentration (IC50) is 327 nM.

As for `[2H]C([2H])([2H])NC(=O)c1nnc(NC(=O)C2CC2)cc1Nc1cccc(-c2ncc(C(=O)N(C)CC)cn2)c1OC` [Example 50, 6-(Cyclopropanecarboxamido)-4-((3-(5-(ethyl(methyl)carbamoyl)pyrimidin-2-yl)-2-methoxyphenyl)amino)-N-(methyl-d3)pyridazine-3-carboxamide], the IC50 was found to be 41 nM. Then `[2H]C([2H])([2H])NC(=O)c1nnc(NC(=O)C2CC2)cc1Nc1cccc(-c2ncc(C(=O)N(C)C3CC3)cn2)c1OC` [Example 52, 6-(cyclopropanecarboxamido)-4-((3-(5-(cyclopropyl(methyl)carbamoyl)pyrimidin-2-yl)-2-methoxyphenyl)amino)-N-(methyl-d3)pyridazine-3-carboxamide], with 50 nM.

Turning to `[2H]C([2H])([2H])NC(=O)c1nnc(NC(=O)C2CC2)cc1Nc1cc(F)cc(-c2ncc(C(=O)N(C)CC)cn2)c1OC` [Example 54, 6-(cyclopropanecarboxamido)-4-((3-(5-(ethyl(methyl)carbamoyl)pyrimidin-2-yl)-5-fluoro-2-methoxyphenyl)amino)-N-(methyl-d3)pyridazine-3-carboxamide], the IC50 is 80 nM. For `[2H]C([2H])([2H])NC(=O)c1nnc(NC(=O)C2CC2)cc1Nc1cccc(-c2ncc(C3CCOC3)cn2)c1OC` (stereo not drawn) [Example 55, 6-(Cyclopropanecarboxamido)-4-((2-methoxy-3-(5-(tetrahydrofuran-3-yl)pyrimidin-2-yl)phenyl)amino)-N-(methyl-d3)pyridazine-3-carboxamide], the half-inhibitory concentration (IC50) stood at 47 nM.

For `[2H]C([2H])([2H])NC(=O)c1nnc(NC(=O)C2CC2)cc1Nc1cccc(-c2cnc(N(C)C(C)=O)cn2)c1OC` [Example 56, 6-(Cyclopropanecarboxamido)-4-((2-methoxy-3-(5-(N-methylacetamido)pyrazin-2-yl)phenyl)amino)-N-(methyl-d3)pyridazine-3-carboxamide], the IC50 was determined as 117 nM. Then `[2H]C([2H])([2H])NC(=O)c1nnc(NC(=O)C2CC2)cc1Nc1cccc(-c2cnc(N3CCOCC3)cn2)c1OC` [Example 57, 6-(Cyclopropanecarboxamido)-4-((2-methoxy-3-(5-morpholinopyrazin-2-yl)phenyl)amino)-N-(methyl-d3)pyridazine-3-carboxamide], with 117 nM; and `[2H]C([2H])([2H])NC(=O)c1nnc(NC(=O)C2CC2)cc1Nc1cccc(-c2cnc(N3CCN(C)CC3)cn2)c1OC` [Example 58, 6-(cyclopropanecarboxamido)-4-((2-methoxy-3-(5-(4-methylpiperazin-1-yl)pyrazin-2-yl)phenyl)amino)-N-(methyl-d3)pyridazine-3-carboxamide], with 267 nM.

For the compound `[2H]C([2H])([2H])NC(=O)c1nnc(NC(=O)C2CC2)cc1Nc1cccc(-c2cnc(N3CCN(C(C)=O)CC3)cn2)c1OC` [Example 59, 4-((3-(5-(4-acetylpiperazin-1-yl)pyrazin-2-yl)-2-methoxyphenyl)amino)-6-(cyclopropanecarboxamido)-N-(methyl-d3)pyridazine-3-carboxamide], the IC50 was found to be 121 nM. Then `[2H]C([2H])([2H])NC(=O)c1cnc(NC(=O)C2CC2)cc1Nc1cccc(-c2cnc(-n3cncn3)cn2)c1OC` [Example 60, 4-((3-(5-(1H-1,2,4-triazol-1-yl)pyrazin-2-yl)-2-methoxyphenyl)amino)-6-(cyclopropanecarboxamido)-N-(methyl-d3)nicotinamide], with 1040 nM. `[2H]C([2H])([2H])NC(=O)c1cnc(Nc2cc(C#N)n(C)n2)cc1Nc1cccc(-c2ncccn2)c1OC` [Example 61, 6-((5-Cyano-1-methyl-1H-pyrazol-3-yl)amino)-4-((2-methoxy-3-(pyrimidin-2-yl)phenyl)amino)-N-(methyl-d3)nicotinamide]: the IC50 stood at 225 nM. The result for `[2H]C([2H])([2H])NC(=O)c1cnc(Nc2cc(C#N)n(C)n2)cc1Nc1cccc(-c2ncc(F)cn2)c1OC` [Example 62, 6-((5-cyano-1-methyl-1H-pyrazol-3-yl)amino)-4-((3-(5-fluoropyrimidin-2-yl)-2-methoxyphenyl)amino)-N-(methyl-d3)nicotinamide] reads 109 nM. The result for `[2H]C([2H])([2H])NC(=O)c1cnc(Nc2cc(C)n(C)n2)cc1Nc1cccc(-c2ncc(F)cn2)c1OC` [Example 63, 6-((1,5-dimethyl-1H-pyrazol-3-yl)amino)-4-((3-(5-fluoropyrimidin-2-yl)-2-methoxyphenyl)amino)-N-(methyl-d3)nicotinamide] reads 49 nM.

Consider `[2H]C([2H])([2H])NC(=O)c1cnc(Nc2cc(C(F)(F)F)n(C)n2)cc1Nc1cccc(-c2ncc(F)cn2)c1OC` [Example 64, 4-((3-(5-fluoropyrimidin-2-yl)-2-methoxyphenyl)amino)-N-(methyl-d3)-6-((1-methyl-5-(trifluoromethyl)-1H-pyrazol-3-yl)amino)nicotinamide], for which the IC50 is 75 nM.

Turning to `[2H]C([2H])([2H])NC(=O)c1cnc(Nc2ccn(C)n2)cc1Nc1cccc(-c2ncc(F)cn2)c1OC` [Example 65, 4-((3-(5-fluoropyrimidin-2-yl)-2-methoxyphenyl)amino)-N-(methyl-d3)-6-((1-methyl-1H-pyrazol-3-yl)amino)nicotinamide], the concentration for half-maximal inhibition (IC50) was determined as 86 nM. Then `[2H]C([2H])([2H])NC(=O)c1cnc(Nc2cc(Cl)n(C)n2)cc1Nc1cccc(-c2ncc(F)cn2)c1OC` [Example 66, 6-((5-chloro-1-methyl-1H-pyrazol-3-yl)amino)-4-((3-(5-fluoropyrimidin-2-yl)-2-methoxyphenyl)amino)-N-(methyl-d3)nicotinamide], with 146 nM; and `[2H]C([2H])([2H])NC(=O)c1cnc(Nc2ccn(CC)n2)cc1Nc1cccc(-c2ncc(F)cn2)c1OC` [Example 67, 6-((1-ethyl-1H-pyrazol-3-yl)amino)-4-((3-(5-fluoropyrimidin-2-yl)-2-methoxyphenyl)amino)-N-(methyl-d3)nicotinamide], with 87 nM; and `[2H]C([2H])([2H])NC(=O)c1cnc(Nc2ccn(C3CC3)n2)cc1Nc1cccc(-c2ncc(F)cn2)c1OC` [Example 68, 6-((1-cyclopropyl-1H-pyrazol-3-yl)amino)-4-((3-(5-fluoropyrimidin-2-yl)-2-methoxyphenyl)amino)-N-(methyl-d3)nicotinamide], with 134 nM.

`[2H]C([2H])([2H])NC(=O)c1cnc(Nc2ccn(C3CC3)n2)cc1Nc1cccc(-c2ncccn2)c1OC` [Example 69, 6-((1-cyclopropyl-1H-pyrazol-3-yl)amino)-4-((2-methoxy-3-(pyrimidin-2-yl)phenyl)amino)-N-(methyl-d3)nicotinamide]: the IC50 amounted to 56 nM. Consider `[2H]C([2H])([2H])NC(=O)c1cnc(Nc2ccccn2)cc1Nc1cccc(-c2ncc(F)cn2)c1OC` [Example 70, 4-((3-(5-fluoropyrimidin-2-yl)-2-methoxyphenyl)amino)-N-(methyl-d3)-6-(pyridin-2-ylamino)nicotinamide], for which the IC50 came to 90 nM. The result for `[2H]C([2H])([2H])NC(=O)c1cnc(Nc2cnc(C#N)cn2)cc1Nc1cccc(-c2ncc(F)cn2)c1OC` [Example 71, 6-((5-cyanopyrazin-2-yl)amino)-4-((3-(5-fluoropyrimidin-2-yl)-2-methoxyphenyl)amino)-N-(methyl-d3)nicotinamide] reads 278 nM.

The IC50 is the concentration that inhibits the measured activity by half.

The values are drawn from patent publication US12479831B2, “Substituted N(-methyl-D3)pyridazine-3-carboxamide or M-(methyl-D3)-nicotinamide compounds as IL-12, IL-23 and/or IFNα modulators” (BRISTOL-MYERS SQUIBB COMPANY, priority 2020, dated 2025).
